# Experimental data published in ChEMBL document CHEMBL1148292 (J Med Chem, 2004).
# How the values were obtained:
# Adenosine receptor A2b [1] = target: T1, Adenosine receptor A2b (Homo sapiens, UniProt P29275); assay: Binding affinity of compound for displacement of [3H]DPCPX binding in HEK293 membranes expressing human A2B adenosine receptors
# T1 sequence (P29275 whole entry): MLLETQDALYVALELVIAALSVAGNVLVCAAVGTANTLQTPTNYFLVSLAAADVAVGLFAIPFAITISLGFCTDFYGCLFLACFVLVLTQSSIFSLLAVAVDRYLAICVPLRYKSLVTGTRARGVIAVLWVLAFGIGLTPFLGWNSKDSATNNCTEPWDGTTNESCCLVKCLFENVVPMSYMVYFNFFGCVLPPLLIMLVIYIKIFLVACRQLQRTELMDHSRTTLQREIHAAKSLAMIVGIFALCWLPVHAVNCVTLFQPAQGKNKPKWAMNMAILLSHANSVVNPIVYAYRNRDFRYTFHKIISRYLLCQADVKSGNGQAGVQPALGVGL
# Adenosine receptor A1 = target: T2, Adenosine receptor A1 (Homo sapiens, UniProt P30542); assay: Displacement of specific [3H]DPCPX binding at human adenosine A1 receptor expressed in CHO cells; type: cell-based
# T2 sequence (P30542 whole entry): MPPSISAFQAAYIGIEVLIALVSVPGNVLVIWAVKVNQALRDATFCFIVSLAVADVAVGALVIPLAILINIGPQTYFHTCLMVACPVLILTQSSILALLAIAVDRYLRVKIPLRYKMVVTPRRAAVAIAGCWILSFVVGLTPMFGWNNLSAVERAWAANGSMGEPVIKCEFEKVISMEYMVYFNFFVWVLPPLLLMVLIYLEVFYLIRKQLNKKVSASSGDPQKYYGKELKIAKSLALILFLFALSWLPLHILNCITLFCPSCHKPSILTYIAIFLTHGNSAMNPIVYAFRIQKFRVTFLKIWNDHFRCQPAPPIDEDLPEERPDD
# Adenosine receptor A2b [2] = target: T1, Adenosine receptor A2b; assay: Inhibitory activity against cAMP production in CHO cells transfected with human A2B adenosine receptor; type: functional, cell-based
# Adenosine receptor A2a = Adenosine receptor A2a (Homo sapiens, UniProt P29274); assay: Binding affinity of compound for displacement of specific [3H]ZM-241385 binding at human adenosine A2A receptor expressed in CHO cells; type: cell-based
# Adenosine receptor A2a, sequence (P29274 whole entry): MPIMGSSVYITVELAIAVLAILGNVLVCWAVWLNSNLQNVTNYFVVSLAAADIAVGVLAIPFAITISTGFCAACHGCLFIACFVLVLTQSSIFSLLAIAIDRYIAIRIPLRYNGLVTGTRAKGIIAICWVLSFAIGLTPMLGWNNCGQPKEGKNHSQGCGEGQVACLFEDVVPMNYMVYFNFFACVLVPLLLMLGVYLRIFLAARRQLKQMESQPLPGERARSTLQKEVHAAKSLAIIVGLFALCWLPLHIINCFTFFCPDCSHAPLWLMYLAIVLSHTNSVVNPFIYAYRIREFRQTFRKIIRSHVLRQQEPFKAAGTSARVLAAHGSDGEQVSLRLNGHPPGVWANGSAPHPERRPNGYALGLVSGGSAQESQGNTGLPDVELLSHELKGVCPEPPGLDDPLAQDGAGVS
# Adenosine receptor A3 = target: T3, Adenosine receptor A3 (Homo sapiens, UniProt P0DMS8); assay: Binding affinity of compound for displacement of specific [3H]MRE3008-F20 binding at human A3 receptors expressed in CHO cells; type: cell-based
# T3 sequence (P0DMS8 whole entry): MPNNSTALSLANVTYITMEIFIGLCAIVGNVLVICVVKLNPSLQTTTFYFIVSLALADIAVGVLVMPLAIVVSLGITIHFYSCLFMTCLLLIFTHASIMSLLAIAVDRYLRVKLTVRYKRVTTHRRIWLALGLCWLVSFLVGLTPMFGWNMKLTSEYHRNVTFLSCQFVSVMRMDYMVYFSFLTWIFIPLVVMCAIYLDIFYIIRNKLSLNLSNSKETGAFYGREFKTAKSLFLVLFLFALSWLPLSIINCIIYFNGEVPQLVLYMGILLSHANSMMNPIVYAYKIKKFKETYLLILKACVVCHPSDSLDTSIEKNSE
# Adenosine receptor A2b [3] = target: T1, Adenosine receptor A2b; assay: Binding affinity of compound for displacement of specific [3H]- DPCPX binding at human A2B receptors expressed in HEK293 cells; type: cell-based
Ki (Adenosine receptor A2b [1]),Ki (Adenosine receptor A1),Ki (Adenosine receptor A2a),Ki (Adenosine receptor A3),Compound,further results
24 nM,> 1000 nM,–,–,C=CCn1c(=O)c2[nH]c(-c3cc(OCC(=O)N4CCN(c5ccccc5)CC4)nn3C)nc2n(CC=C)c1=O,IC50 (Adenosine receptor A2b [2]): 81 nM
–,> 1000 nM,–,–,CCCn1c(=O)c2[nH]c(-c3cc(OCC(=O)Nc4ccc(F)cc4)no3)nc2n(CCC)c1=O,–
–,> 1000 nM,–,–,CCCn1c(=O)c2[nH]c(-c3cc(NC(=O)Cc4ccc([N+](=O)[O-])cc4)nn3C)nc2n(CCC)c1=O,–
20 nM,–,–,–,CCCn1c(=O)c2[nH]c(-c3cc(OCC(=O)Nc4ccc(Br)cc4)nn3C)nc2n(CCC)c1=O,–
–,> 1000 nM,–,–,CCCn1c(=O)c2[nH]c(-c3cc(OCC(=O)Nc4ccc(OC)c(OC)c4)no3)nc2n(CCC)c1=O,–
–,> 1000 nM,> 1000 nM,> 1000 nM,Cn1nc(-c2nc3c([nH]2)c(=O)n(C)c(=O)n3C)cc1N,Ki (Adenosine receptor A2b [3]): 175 nM
28 nM,–,–,–,CCCn1c(=O)c2[nH]c(-c3cc(NC(=O)Cc4ccc(Cl)cc4)nn3C)nc2n(CCC)c1=O,–
–,> 1000 nM,> 1000 nM,> 1000 nM,CCCn1c(=O)c2[nH]c(-c3cc(OCC(=O)Nc4ccc(C(C)=O)cc4)nn3C)nc2n(CCC)c1=O,–
–,> 1000 nM,–,–,CCCn1c(=O)c2[nH]c(-c3cc(OCC(=O)Nc4ccc(OC)cc4)no3)nc2n(CCC)c1=O,–
–,> 1000 nM,> 1000 nM,> 1000 nM,CCCn1c(=O)c2[nH]c(-c3ccc(NC(=O)Cc4ccccc4)cc3)nc2n(CCC)c1=O,Ki (Adenosine receptor A2b [3]): 649 nM
–,> 1000 nM,–,–,CCCn1c(=O)c2[nH]c(-c3ccc(OCC(=O)Nc4ccc(I)cc4)nn3)nc2n(CCC)c1=O,–

# Second part, the compound before the results:
Compound,Ki (Adenosine receptor A2b [1]),Ki (Adenosine receptor A1),Ki (Adenosine receptor A2a),Ki (Adenosine receptor A3),further results
CCCn1c(=O)c2[nH]c(-c3cc(OCC(=O)Nc4ccc(C(=O)OCC)cc4)nn3C)nc2n(CCC)c1=O,32 nM,> 1000 nM,–,–,IC50 (Adenosine receptor A2b [2]): 120 nM
CCCn1c(=O)c2[nH]c(-c3cc(NC(=O)Cc4ccc(N(C)C)cc4)nn3C)nc2n(CCC)c1=O,–,> 1000 nM,–,–,–
CCCn1c(=O)c2[nH]c(-c3cc(NC(=O)Cc4ccc(OCc5ccccc5)cc4)nn3C)nc2n(CCC)c1=O,56 nM,> 1000 nM,–,–,IC50 (Adenosine receptor A2b [2]): 185 nM
CCCn1c(=O)c2[nH]c(-c3cc(OCC(=O)Nc4ccncc4)nn3C)nc2n(CCC)c1=O,–,–,> 1000 nM,> 1000 nM,–
CCCn1c(=O)c2[nH]c(-c3cc(OCC(=O)N4CCN(C)CC4)nn3C)nc2n(CCC)c1=O,76 nM,> 1000 nM,–,–,Ki (Adenosine receptor A1; cho): > 1000 nM; Ki (Adenosine receptor A2b [3]): 76 nM; IC50 (Adenosine receptor A2b [2]): 322 nM
CCCn1c(=O)c2[nH]c(-c3cc(NC(=O)[C@H](C)c4ccccc4)nn3C)nc2n(CCC)c1=O,–,> 1000 nM,–,–,–
CCCn1c(=O)c2[nH]c(-c3cc(OCC(=O)Nc4ccc(C(C)CC)cc4)nn3C)nc2n(CCC)c1=O (centres undefined),–,–,> 1000 nM,> 1000 nM,–
CCCn1c(=O)c2[nH]c(-c3cc(C(=O)O)n(C)n3)nc2n(CCC)c1=O,–,> 1000 nM,–,–,–
CCCn1c(=O)c2[nH]c(-c3cc(NC(=O)Cc4ccc(OCc5ccccc5C(F)(F)F)cc4)nn3C)nc2n(CCC)c1=O,13 nM,–,–,–,–
CCCn1c(=O)c2[nH]c(-c3cc(NC(=O)Cc4ccccc4)n(C)n3)nc2n(CCC)c1=O,34 nM,–,> 1000 nM,> 1000 nM,–
CCCn1c(=O)c2[nH]c(-c3cc(OCC(=O)N4CCN(Cc5ccccc5)CC4)nn3C)nc2n(CCC)c1=O,–,–,> 1000 nM,> 1000 nM,–
CCCn1c(=O)c2[nH]c(-c3cc(NC(=O)Cc4ccc(C(F)(F)F)cc4)nn3C)nc2n(CCC)c1=O,–,–,–,–,Ki (Adenosine receptor A2b [3]): 130 nM
CCCn1c(=O)c2[nH]c(-c3cc(NC(=O)Cc4ccccc4)nn3C)nc2n(CCC)c1=O,35 nM,–,–,–,–
CCCn1c(=O)c2[nH]c(-c3ccc(NC(=O)Nc4cccc(OC)c4)cc3)nc2n(CCC)c1=O,–,1170 nM,> 1000 nM,> 1000 nM,Ki (Adenosine receptor A2b [3]): 58 nM
CCCn1c(=O)c2nc(-c3cc(OCC(=O)Nc4ccc5c(c4)OCO5)no3)[nH]c2n(CCC)c1=O,47 nM,> 1000 nM,> 1000 nM,> 1000 nM,Ki (Adenosine receptor A2b [3]): 47 nM; IC50 (Adenosine receptor A2b [2]): 140 nM
CCCn1c(=O)c2[nH]c(-c3cc(NC(=O)Cc4ccc5c(c4)OCO5)nn3C)nc2n(CCC)c1=O,18 nM,–,> 1000 nM,–,–
